The results in this text go back to paper PMC12164952 (Science Advances, 2025).

The term IC50 denotes the concentration needed to halve the response being measured. High values mean lower potency, low ones higher potency. For orientation: Km means the concentration of substrate that gives half-maximal velocity.

The target in one data set is T1, ABCB19 (Arabidopsis thaliana, UniProt Q9LJX0).
T1 sequence (Q9LJX0 1-1252): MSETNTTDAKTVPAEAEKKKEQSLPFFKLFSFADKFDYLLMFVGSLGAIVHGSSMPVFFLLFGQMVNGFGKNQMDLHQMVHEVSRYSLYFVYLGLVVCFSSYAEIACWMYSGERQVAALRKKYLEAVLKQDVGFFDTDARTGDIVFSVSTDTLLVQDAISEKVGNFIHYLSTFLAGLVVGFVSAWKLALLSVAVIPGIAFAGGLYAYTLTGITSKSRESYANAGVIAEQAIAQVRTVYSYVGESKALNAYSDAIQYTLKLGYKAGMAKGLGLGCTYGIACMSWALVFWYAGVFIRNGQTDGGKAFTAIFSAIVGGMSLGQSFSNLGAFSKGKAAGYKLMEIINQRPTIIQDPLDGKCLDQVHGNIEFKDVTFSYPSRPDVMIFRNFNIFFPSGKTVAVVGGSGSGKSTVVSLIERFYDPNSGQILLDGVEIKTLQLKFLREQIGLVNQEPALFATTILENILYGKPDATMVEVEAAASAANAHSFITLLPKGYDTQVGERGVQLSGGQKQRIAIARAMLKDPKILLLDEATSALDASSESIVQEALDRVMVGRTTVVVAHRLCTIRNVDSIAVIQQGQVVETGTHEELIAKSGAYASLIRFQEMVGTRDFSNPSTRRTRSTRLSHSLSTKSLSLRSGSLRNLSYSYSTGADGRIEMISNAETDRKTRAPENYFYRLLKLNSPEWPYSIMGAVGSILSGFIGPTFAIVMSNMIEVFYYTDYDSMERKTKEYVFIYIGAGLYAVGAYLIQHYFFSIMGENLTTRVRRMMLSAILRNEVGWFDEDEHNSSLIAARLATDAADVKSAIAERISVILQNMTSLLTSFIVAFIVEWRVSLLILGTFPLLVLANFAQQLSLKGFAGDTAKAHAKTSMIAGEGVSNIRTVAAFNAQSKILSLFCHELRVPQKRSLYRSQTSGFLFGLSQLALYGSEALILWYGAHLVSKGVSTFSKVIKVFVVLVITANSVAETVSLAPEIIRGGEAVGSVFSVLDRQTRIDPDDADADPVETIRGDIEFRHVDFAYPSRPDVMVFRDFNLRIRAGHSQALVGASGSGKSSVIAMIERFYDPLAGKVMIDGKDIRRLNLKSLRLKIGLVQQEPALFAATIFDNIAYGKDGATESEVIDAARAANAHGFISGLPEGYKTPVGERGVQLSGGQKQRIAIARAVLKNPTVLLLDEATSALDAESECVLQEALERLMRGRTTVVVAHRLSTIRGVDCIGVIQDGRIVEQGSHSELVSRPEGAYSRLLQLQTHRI
Briefly: cryo-EM structure at […] Å in nanodiscs. Type of data set: biochemical.

Substrate in the data set “purified protein”: Nc1ncnc2c1ncn2[C@@H]1O[C@H](COP(=O)(O)OP(=O)(O)OP(=O)(O)O)[C@@H](O)[C@H]1O
Description: purified protein. Type of data set: biochemical, Arabidopsis thaliana. Particulars: Mg2+ ATP-binding sites of the NBDs.

With `CCN(CC)c1ccc(C(=O)c2ccccc2C(=O)O)c(O)c1` [BUM, 2-[4-(Diethylamino)-2-hydroxybenzoyl]benzoic acid], on ABCB19, the IC50 worked out at 890 µM.

B1: ABCB19 (Arabidopsis thaliana) (protein)
chain: T1 sequence (Q9LJX0 1-1252)
In the case of B1, in the data set “purified protein”, the Km is 1080 µM.
